Test results: EP2987533B1, “7-substituted piperazin-1-yl fluoroquinolone compounds, their use in the treatment of cancer, pharmaceutical compositions and a method for preparation” (priority 2014, dated 2016)
Read-outs that look alike come from different tables or passages of the source.

How the values were obtained:
786-0 = assay: NCI one-dose SRB growth assay; type: cell-based; settings: Homo sapiens; 786-0 (Renal Cancer), 10^-5 M, 48 h; read-out: % Growth Inhibition (GI %)
Experimental: (§1) A primary anticancer assay was performed for an approximately 60 human tumor cell line panel derived from nine neoplastic diseases, in accordance with the protocol of the Drug Evaluation Branch, National Cancer Institute, Bethesda, MD (Monks A. et al., J. Natl. Cancer Inst 1991, 83, 757-766; Boyd M.R. and Paull K.D., Drug. Dev. Res. 1995, 34, 91-109; Shoemaker R.H., Nat. Rev. Cancer 2006, 6, 813-823). Briefly, tested compounds were added to the culture at a single concentration (10^-5M), and the cultures were incubated for 48 h. End point determinations were made with a protein binding dye, sulforhodamine B (SRB). The results for each tested compound were reported as the growth percentage of the treated cells when compared to that of the untreated control cells. The percentage growth was evaluated spectrophotometrically versus controls not treated with test agents.

A498 = assay: NCI one-dose SRB growth assay; type: cell-based; settings: Homo sapiens; A498 (Renal Cancer), 10^-5 M, 48 h; read-out: % Growth Inhibition (GI %)
Experimental: as §1

CAKI-1 = assay: NCI one-dose SRB growth assay; type: cell-based; settings: Homo sapiens; CAKI-1 (Renal Cancer), 10^-5 M, 48 h; read-out: % Growth Inhibition (GI %)
Experimental: as §1

COLO 205 = assay: NCI one-dose SRB growth assay; type: cell-based; settings: Homo sapiens; COLO 205 (Colon Cancer), 10^-5 M, 48 h; read-out: % Growth Inhibition (GI %)
Experimental: as §1

DU-145 = assay: NCI one-dose SRB growth assay; type: cell-based; settings: Homo sapiens; DU-145 (Prostate Cancer), 10^-5 M, 48 h; read-out: % Growth Inhibition (GI %)
Experimental: as §1

HOP-92 = assay: NCI one-dose SRB growth assay; type: cell-based; settings: Homo sapiens; HOP-92 (Non-Small Cell Lung Cancer), 10^-5 M, 48 h; read-out: % Growth Inhibition (GI %)
Experimental: as §1

HT29 = assay: NCI one-dose SRB growth assay; type: cell-based; settings: Homo sapiens, HT-29; HT29 (Colon Cancer), 10^-5 M, 48 h; read-out: % Growth Inhibition (GI %)
Experimental: as §1

KM12 = assay: NCI one-dose SRB growth assay; type: cell-based; settings: Homo sapiens; KM12 (Colon Cancer), 10^-5 M, 48 h; read-out: % Growth Inhibition (GI %)
Experimental: as §1

MCF7 = assay: NCI one-dose SRB growth assay; type: cell-based; settings: Homo sapiens; MCF7 (Breast Cancer), 10^-5 M, 48 h; read-out: % Growth Inhibition (GI %)
Experimental: as §1

MDA-MB-435 = assay: NCI one-dose SRB growth assay; type: cell-based; settings: Homo sapiens; MDA-MB-435 (Melanoma), 10^-5 M, 48 h; read-out: % Growth Inhibition (GI %)
Experimental: as §1

NCI-H23 = assay: NCI one-dose SRB growth assay; type: cell-based; settings: Homo sapiens; NCI-H23 (Non-Small Cell Lung Cancer), 10^-5 M, 48 h; read-out: % Growth Inhibition (GI %)
Experimental: as §1

NCI-H460 = assay: NCI one-dose SRB growth assay; type: cell-based; settings: Homo sapiens; NCI-H460 (Non-Small Cell Lung Cancer), 10^-5 M, 48 h; read-out: % Growth Inhibition (GI %)
Experimental: as §1

NCI/ADR-RES = assay: NCI one-dose SRB growth assay; type: cell-based; settings: Homo sapiens; NCI/ADR-RES (Ovarian Cancer), 10^-5 M, 48 h; read-out: % Growth Inhibition (GI %)
Experimental: as §1

OVCAR-4 = assay: NCI one-dose SRB growth assay; type: cell-based; settings: Homo sapiens; OVCAR-4 (Ovarian Cancer), 10^-5 M, 48 h; read-out: % Growth Inhibition (GI %)
Experimental: as §1

OVCAR-8 = assay: NCI one-dose SRB growth assay; type: cell-based; settings: Homo sapiens; OVCAR-8 (Ovarian Cancer), 10^-5 M, 48 h; read-out: % Growth Inhibition (GI %)
Experimental: as §1

PC-3 = assay: NCI one-dose SRB growth assay; type: cell-based; settings: Homo sapiens; PC-3 (Prostate Cancer), 10^-5 M, 48 h; read-out: % Growth Inhibition (GI %)
Experimental: as §1

PRMI-8226 = assay: NCI one-dose SRB growth assay; type: cell-based; settings: Homo sapiens; PRMI-8226 (Leukemia), 10^-5 M, 48 h; read-out: % Growth Inhibition (GI %)
Experimental: as §1

RXF 393 = assay: NCI one-dose SRB growth assay; type: cell-based; settings: Homo sapiens; RXF 393 (Renal Cancer), 10^-5 M, 48 h; read-out: % Growth Inhibition (GI %)
Experimental: as §1

SF-295 = assay: NCI one-dose SRB growth assay; type: cell-based; settings: Homo sapiens; SF-295 (CNS Cancer), 10^-5 M, 48 h; read-out: % Growth Inhibition (GI %)
Experimental: as §1

SF-539 = assay: NCI one-dose SRB growth assay; type: cell-based; settings: Homo sapiens; SF-539 (CNS Cancer), 10^-5 M, 48 h; read-out: % Growth Inhibition (GI %)
Experimental: as §1

SK-MEL-5 = assay: NCI one-dose SRB growth assay; type: cell-based; settings: Homo sapiens; SK-MEL-5 (Melanoma), 10^-5 M, 48 h; read-out: % Growth Inhibition (GI %)
Experimental: as §1

SN12C = assay: NCI one-dose SRB growth assay; type: cell-based; settings: Homo sapiens; SN12C (Renal Cancer), 10^-5 M, 48 h; read-out: % Growth Inhibition (GI %)
Experimental: as §1

SNB-19 = assay: NCI one-dose SRB growth assay; type: cell-based; settings: Homo sapiens; SNB-19 (CNS Cancer), 10^-5 M, 48 h; read-out: % Growth Inhibition (GI %)
Experimental: as §1

U251 = assay: NCI one-dose SRB growth assay; type: cell-based; settings: Homo sapiens, U-251; U251 (CNS Cancer), 10^-5 M, 48 h; read-out: % Growth Inhibition (GI %)
Experimental: as §1

UACC-257 = assay: NCI one-dose SRB growth assay; type: cell-based; settings: Homo sapiens; UACC-257 (Melanoma), 10^-5 M, 48 h; read-out: % Growth Inhibition (GI %)
Experimental: as §1

[1] = system: full panel of about 60 human tumor cell lines; assay: NCI five-dose SRB assay, full panel mean; settings: 48 h; for CC50 / GI50: Homo sapiens; for CC50: read-out: LC50 MG-MID (Full panel mean-graph midpoint); for GI50: read-out: GI50 MG-MID (Full panel mean-graph midpoint); for TGI MG-MID (Full panel mean-graph midpoint): five concentrations

| SMILES | inhibition at 10 µM (786-0) | inhibition at 10 µM (A498) | inhibition at 10 µM (CAKI-1) | inhibition at 10 µM (COLO 205) | inhibition at 10 µM (DU-145) | inhibition at 10 µM (HOP-92) | inhibition at 10 µM (HT29) | inhibition at 10 µM (KM12) | inhibition at 10 µM (MCF7) | inhibition at 10 µM (MDA-MB-435) | inhibition at 10 µM (NCI-H23) | inhibition at 10 µM (NCI-H460) | inhibition at 10 µM (NCI/ADR-RES) | inhibition at 10 µM (OVCAR-4) | inhibition at 10 µM (PC-3) | inhibition at 10 µM (PRMI-8226) | inhibition at 10 µM (RXF 393) | inhibition at 10 µM (SF-295) | inhibition at 10 µM (SF-539) | inhibition at 10 µM (SK-MEL-5) | also measured |
| --- | --- | --- | --- | --- | --- | --- | --- | --- | --- | --- | --- | --- | --- | --- | --- | --- | --- | --- | --- | --- | --- |
| CCn1cc(C(=O)O)c(=O)c2cc(F)c(N3CCN(S(=O)(=O)c4ccc(Cl)cc4)CC3)cc21 [Compound 1a] | 76.3% | > 100% | 56.4% | 87.9% | 68.3% | > 100% | 92.1% | 95.7% | 85.7% | 74.9% | > 100% | 94.1% | 31.3% | 62.3% | 74.7% | 86.6% | 86.6% | 96.1% | 78.3% | 73.4% | inhibition at 10 µM (OVCAR-8): 87.4%; inhibition at 10 µM (SN12C): 88.4%; inhibition at 10 µM (SNB-19): 79.4%; inhibition at 10 µM (U251): 88%; inhibition at 10 µM (UACC-257): 71%; CC50 ([1]; 60 cell): 95.5 µM; GI50 [1]: 2.95 µM; TGI MG-MID (Full panel mean-graph midpoint) [1]: 29.51 µM |
| CCn1cc(C(=O)O)c(=O)c2cc(F)c(N3CCN(S(=O)(=O)c4ccc(Cl)cc4Cl)CC3)cc21 [Compound 2a] | 81.3% | > 100% | 95.2% | > 100% | 88.4% | > 100% | 98.1% | 90.6% | 10.8% | 87.2% | > 100% | 89.1% | 90.7% | < 10% | 98.4% | 90.9% | 72.1% | > 100% | 91.4% | > 100% | inhibition at 10 µM (OVCAR-8): 94.2%; inhibition at 10 µM (SN12C): 89.7%; inhibition at 10 µM (SNB-19): 73.8%; inhibition at 10 µM (U251): 87.9%; inhibition at 10 µM (UACC-257): > 100%; CC50 ([1]; 60 cell): 57.5 µM; GI50 [1]: 2.63 µM; TGI MG-MID (Full panel mean-graph midpoint) [1]: 14.12 µM |
| O=C(O)c1cn(C2CC2)c2cc(N3CCN(S(=O)(=O)c4ccc(Cl)cc4Cl)CC3)c(F)cc2c1=O [Compound 2b] | < 10% | 23.6% | 12.1% | 11.9% | < 10% | < 10% | < 10% | < 10% | 82.4% | < 10% | 16.8% | < 10% | < 10% | 35.9% | 18.9% | 21.3% | 67.7% | < 10% | < 10% | 79.8% | inhibition at 10 µM (OVCAR-8): < 10%; inhibition at 10 µM (SN12C): 13.8%; inhibition at 10 µM (SNB-19): < 10%; inhibition at 10 µM (U251): < 10%; inhibition at 10 µM (UACC-257): < 10% |
| O=C(O)c1cn(C2CC2)c2cc(N3CCN(S(=O)(=O)c4ccc(Cl)c(Cl)c4)CC3)c(F)cc2c1=O [Compound 3b] | 72.2% | 86.2% | 96.9% | > 100% | 82.8% | 87.8% | 99.7% | 85.4% | 86.5% | 87% | 98.2% | 94.2% | 46.5% | 79.2% | 83.8% | 95.1% | 71% | > 100% | 88.6% | 97.9% | inhibition at 10 µM (OVCAR-8): 94.5%; inhibition at 10 µM (SN12C): 89.6%; inhibition at 10 µM (SNB-19): 75.3%; inhibition at 10 µM (U251): 87.6%; inhibition at 10 µM (UACC-257): 91.1%; CC50 ([1]; 60 cell): 95.5 µM; GI50 [1]: 3.09 µM; TGI MG-MID (Full panel mean-graph midpoint) [1]: 60.25 µM |
| O=c1[nH]cc(F)c(=O)[nH]1 [Compound 5-FU, 5-fluorouracil, reference compound] | 48.7% | > 100% | 39.4% | 40.2% | 35.5% | 50.6% | 27.1% | 40.7% | 11.5% | 36.6% | 39% | 13% | 47.6% | 59.4% | 58.2% | 41.4% | 34.3% | 69.1% | > 100% | 33.7% | inhibition at 10 µM (SN12C): 54%; inhibition at 10 µM (SNB-19): 65.9%; inhibition at 10 µM (U251): 50.3%; inhibition at 10 µM (UACC-257): 19.5%; GI50 [1]: 22.6 µM; CC50 [1]: > 100 µM; TGI MG-MID (Full panel mean-graph midpoint) [1]: c (Compounds showed values > 100µM) |
| CCn1cc(C(=O)O)c(=O)c2cc(F)c(N3CCN(S(=O)(=O)c4c(C)cc(C)cc4C)CC3)cc21 [Compound 6a] | < 10% | 21.1% | 10.7% | < 10% | < 10% | 12.6% | < 10% | 12.8% | < 10% | 10.9% | 22.3% | 17.2% | 15.2% | < 10% | 38.9% | 35.9% | 11.1% | 51.6% | 20.1% | 20.5% | inhibition at 10 µM (OVCAR-8): 18.5%; inhibition at 10 µM (SN12C): 11.5%; inhibition at 10 µM (SNB-19): 10.1%; inhibition at 10 µM (U251): 16.6%; inhibition at 10 µM (UACC-257): < 10% |
